In patent US20220204501A1, “ENTEROVIRUS INHIBITOR” (ACADEMY OF MILITARY MEDICAL SCIENCES, priority 2019, published 2022):

Key:
EV-D68 [1] = system: EV-D68
CA16 = assay: organism not typed; assay type: cell-based; conditions: RD, 96 h
mTOR kinase = mTOR kinase (Homo sapiens, UniProt P42345); assay: Inhibitory activity on mTOR kinase (TR-FRET, GFP-4E-BP1 substrate); assay type: biochemical; conditions: fit parameter of concentration-mTOR kinase inhibition curve
EV71 virus [2] = assay: microbe, parasite or virus in culture; conditions: Enterovirus A, EV71, RD, 96 h
EV-D68 [3] = assay: microbe, parasite or virus in culture; conditions: Enterovirus D, EVD68, RD, 96 h
mTORC1 = mTORC1 (Homo sapiens, UniProt P42345); conditions: RD cells, 20 μM, 2 hours, insulin medium, Western blot
[4] = system: Poliovirus I/II/III (mixed vaccine strains of three subtypes); assay: microbe, parasite or virus in culture; conditions: Enterovirus C, RD, 96 h
CB3 virus [5] = assay: organism not typed; conditions: Vero, 120 h
EV71 virus [6] = system: EV71 virus
CB3 virus [7] = system: CB3 virus
CA10 = assay: organism not typed; assay type: cell-based; conditions: RD, 96 h
[8] = system: Poliovirus I/II/III (mixed vaccine strains of three subtypes)
CA6 = assay: organism not typed; assay type: cell-based; conditions: RD, 96 h
mTORC2 = mTORC2 (Homo sapiens, UniProt P42345); conditions: RD cells, 20 μM, 2 hours, insulin medium, Western blot

Nc1ccc(-c2ccc3ncc4ccc(=O)n(-c5cccc(C(F)(F)F)c5)c4c3c2)cn1 [compound of Formula I, 9-(6-amino-pyridin-3-yl)-1-(3-trifluoromethyl-phenyl)-1H-benzo[h][1,6]naphthyridin-one]
inhibitory effect on enterovirus (in words) (EV-D68 [1]): significant inhibitory effect
IC50 (CA16): > 10000 nM
Bottom (mTOR kinase): 3.74
HillSlope (mTOR kinase): 1.14
Top (mTOR kinase): 103.60
IC50 (EV71 virus [2]): 10 nM
IC50 (EV-D68 [3]): 5 nM
phosphorylation expression levels of p70 (Thr389 of p70S6K1) (mTORC1): significantly reduced
IC50 [4]: 52 nM
IC50 (CB3 virus [5]): 5 nM
inhibitory effect on enterovirus (in words) (EV71 virus [6]): significant inhibitory effect
inhibitory effect on enterovirus (in words) (CB3 virus [7]): significant inhibitory effect
IC50 (CA10): > 10000 nM
inhibitory effect on enterovirus (in words) [8]: significant inhibitory effect
IC50 (CA6): > 10000 nM
phosphorylation level of Akt (Ser473) (mTORC2): significantly down-regulate
